Measured values published in US8648068B2, “Heterocycloalkyl-containing thienopyrimidines for pharmaceutical compositions” (Boehringer Ingelheim International GmbH, priority 2010, dated 2014).

target: T1, human Mnk2a (Homo sapiens, UniProt Q9HBH9); assay: Mnk2a in vitro kinase assay (indirect fluorescence polarization); format: biochemical; conditions: GST-Mnk2a pre-activated with ERK2, 20 μM ATP, 30 μM substrate peptide; read-out: MNK2 IC50
T1 construct: made in house; host or cells: E. coli BL21 (vector pGEX-4T1)
T1 sequence (Q9HBH9 whole entry): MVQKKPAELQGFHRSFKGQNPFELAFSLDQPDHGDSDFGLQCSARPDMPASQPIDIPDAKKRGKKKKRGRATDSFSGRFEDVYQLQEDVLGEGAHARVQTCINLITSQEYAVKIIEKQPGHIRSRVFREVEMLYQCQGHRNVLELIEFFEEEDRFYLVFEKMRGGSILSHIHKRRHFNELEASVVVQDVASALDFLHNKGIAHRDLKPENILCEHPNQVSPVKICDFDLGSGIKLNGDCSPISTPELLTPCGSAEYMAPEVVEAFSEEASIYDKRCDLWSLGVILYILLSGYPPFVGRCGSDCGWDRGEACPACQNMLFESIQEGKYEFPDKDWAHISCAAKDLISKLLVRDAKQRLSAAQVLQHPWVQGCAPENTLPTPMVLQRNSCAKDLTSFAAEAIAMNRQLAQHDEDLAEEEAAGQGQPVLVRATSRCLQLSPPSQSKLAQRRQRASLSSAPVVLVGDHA
Method: Inhibitory potency of compounds against Mnk1, Mnk2a and other kinases was assessed with assays based on a format known to those skilled in the art as the indirect (competitive) fluorescence polarization. The assay detection system comprises a small fluorophore-labeled phospho-peptide (termed ligand) bound to a phospho-specific antibody. The product generated by the kinase reaction competes with the ligand for antibody binding. Based on the larger molecular volume of the bound ligand, which results in a lower rotation rate in solution, its emitted light has a higher degree of polarization than the one from the free ligand.
As a source of enzyme, human Mnk1 and human Mnk2a were expressed as GST fusion proteins in E. coli, purified to >80% homogeneity by glutathione affinity chromatography and activated in vitro with pre-activated ERK2. In brief, the open reading frames of human Mnk1 and Mnk2a were amplified from cDNA using the forward/reverse primer pairs
(utilized restriction sites underlined), respectively, and cloned into the BamHI and SalI sites of the vector pGEX-4T1 (Amersham, Sweden, cat. no. 27-4580-01). These constructs allow prokaryotic expression of Mnk1 or Mnk2a as fusion protein with a N-terminal glutathione S-transferase (GST) tag, referred to as GST-Mnk1 or GST-Mnk2a. The following expression and purification procedure was identical for GST-Mnk1 and GST-Mnk2a, referring in general to GST-Mnk, when not distinguishing between the two isoforms. Expression of GST-Mnk was in E. coli BL21 (Merck Biosciences, Germany, cat. no. 69449). Cells were grown in LB-Bouillon (Merck, Germany, cat. no. 1.10285) supplemented with 100 μg/ml ampicillin (Sigma, Germany, cat. no. A9518) at 37° C. When the culture had reached a density corresponding to an A600 of 0.8, an equal volume of ice cold LB/ampicillin was added, the culture transferred to 25° C. and induced for 4 h with 1 mM isopropyl thiogalactoside (IPTG, Roth, Germany, cat. no. 2316.4). Cells harvested by centrifugation were resuspended in 10 ml lysis buffer (50 mM tris(hydroxymethyl)aminomethane hydrochloride (Tris/HCl, Sigma, Germany, cat. no. T5941) pH 7.5, 300 mM sodium chloride (NaCl, Sigma, Germany, cat. no. S7653), 5% (w/v) glycerol (Sigma, Germany, cat. no. G5516), 3 mM DTT dithiotreitol (DTT, Sigma, Germany, cat. no. D9779)) per gram wet weight cell pellet. Lysates were prepared by disruption of cells with a sonifier and subsequent clearing by centrifugation at 38000 g for 45 min at 4° C.
The lysate was applied to a GSTPrep FF 16/10 column (Amersham, Sweden, cat. no. 17-5234-01) equilibrated with lysis buffer. Removal of unbound material was with 3 column volumes (CV) lysis buffer. Elution was with 2 CV of elution buffer (50 mM Tris/HCl pH 7.5, 300 mM NaCl, 5% (w/v) glycerol, 20 mM glutathione (Sigma, Germany, cat. no. G4251)). Peak fractions were pooled and the protein transferred into storage buffer (50 mM Tris/HCl pH 7.5, 200 mM NaCl, 0.1 mM ethylene glycol-bis(2-aminoethylether)-N,N,N′,N′-tetraacetic acid (EGTA, Aldrich, Germany, cat. no. 23, 453-2), 1 mM DTT, 10% (w/v) glycerol, 0.5 M sucrose (Sigma, Germany, cat. no. SO389) by gel filtration on a PD10 desalting column (Amersham, Sweden, cat. no. 17-0851-01). Aliquots were shock frozen in liquid nitrogen and stored at −80° C.
Activation of Mnk1 and Mnk2a was at a concentration of 2.5 μM of either purified GST-Mnk1 or GST-Mnk2a by incubation with 150 nM pre-activated NHis-ERK2 (see ERK2 assay for preparation) and 50 μM adenosine triphosphate (ATP, Sigma, cat. no. A2699) in a buffer comprising 20 mM N-(2-hydroxyethyl)piperazine-N′-(2-ethanesulfonic acid) (HEPES, Fluka, Germany, cat. no 54459)/potassium hydroxide (KOH, Roth, Germany, cat. no 6751.1) pH 7.4, 10 mM magnesium chloride (MgCl2, Sigma, Germany, cat. no. M2670), 0.25 mM DTT, 0.05% (w/v) polyoxyethylene 20 stearylether (Brij 78, Sigma, Germany, cat. no. P4019) (HMDB buffer) for 45 min at 30° C. […]

IC50 | SMILES
0.064 µM | Cc1c(C(=O)NCCOc2ccccc2)sc2ncnc(Nc3ccc(F)cc3OC3CCCNC3)c12 (centres unmarked) [Example 44]
0.036 µM | COc1ccc(CNC(=O)c2sc3ncnc(Nc4ccc(F)cc4OC4CCCNC4)c3c2C)cc1 (centres unmarked) [Example 45]
0.015 µM | Cc1c(C(=O)NCCc2ccc(O)cc2)sc2ncnc(Nc3ccc(F)cc3OC3CCCNC3)c12 (centres unmarked) [Example 46]
0.051 µM | Cc1c(C(=O)NCCS(=O)(=O)N(C)C)sc2ncnc(Nc3ccc(F)cc3OC3CCCNC3)c12 (centres unmarked) [Example 47]
0.075 µM | Cc1c(C(=O)NCC(C)(C)Cl)sc2ncnc(Nc3ccc(F)cc3OC3CCCNC3)c12 (centres unmarked) [Example 48]
0.099 µM | Cc1c(C(=O)NCC(C)(C)O)sc2ncnc(Nc3ccc(F)cc3OC3CCCNC3)c12 (centres unmarked) [Example 49]
0.072 µM | Cc1c(C(=O)NCCOCCO)sc2ncnc(Nc3ccc(F)cc3OC3CCCNC3)c12 (centres unmarked) [Example 50]
0.16 µM | Cc1c(C(=O)NC[C@@H]2CCC(=O)N2)sc2ncnc(Nc3ccc(F)cc3OC3CCCNC3)c12 (some centres unmarked) [Example 51]
0.13 µM | CCN1CCC[C@@H]1CNC(=O)c1sc2ncnc(Nc3ccc(F)cc3OC3CCCNC3)c2c1C (some centres unmarked) [Example 52]
0.046 µM | Cc1c(C(=O)NCCC2CCCN2C)sc2ncnc(Nc3ccc(F)cc3OC3CCCNC3)c12 (centres unmarked) [Example 53]
0.051 µM | Cc1c(C(=O)NCC2CN(C)CCO2)sc2ncnc(Nc3ccc(F)cc3OC3CCCNC3)c12 (centres unmarked) [Example 55]
0.049 µM | Cc1c(C(=O)NCCCc2ccncc2)sc2ncnc(Nc3ccc(F)cc3OC3CCCNC3)c12 (centres unmarked) [Example 56]
0.043 µM | Cc1c(C(=O)NCc2cc(F)ccc2F)sc2ncnc(Nc3ccc(F)cc3OC3CCCNC3)c12 (centres unmarked) [Example 57]
0.064 µM | Cc1c(C(=O)NCc2cccc3ccccc23)sc2ncnc(Nc3ccc(F)cc3OC3CCCNC3)c12 (centres unmarked) [Example 58]
0.048 µM | Cc1c(C(=O)NCc2ccc(Cl)c(F)c2)sc2ncnc(Nc3ccc(F)cc3OC3CCCNC3)c12 (centres unmarked) [Example 59]
0.064 µM | Cc1c(C(=O)NCc2cccc3ccccc23)sc2ncnc(Nc3ccc(F)cc3OC3CCCNC3)c12 (centres unmarked) [Example 60]
0.038 µM | Cc1c(C(=O)NCc2ccc3sccc3c2)sc2ncnc(Nc3ccc(F)cc3OC3CCCNC3)c12 (centres unmarked) [Example 61]
0.11 µM | Cc1c(C(=O)NCC(c2cccnc2)N(C)C)sc2ncnc(Nc3ccc(F)cc3OC3CCCNC3)c12 (centres unmarked) [Example 62]
0.043 µM | Cc1c(C(=O)NCc2ccc(OC(C)C)cc2)sc2ncnc(Nc3ccc(F)cc3OC3CCCNC3)c12 (centres unmarked) [Example 63]

IC50 | SMILES
0.021 µM | Cc1c(C(=O)Nc2ccn(C)n2)sc2ncnc(Nc3ccc(F)cc3O[C@H]3CCCNC3)c12 [Example 64, 4-[4-Fluoro-2-((S)-piperidin-3-yloxy)-phenylamino]-5-methyl-thieno[2,3-d]pyrimidine-6-carboxylic acid (1-methyl-1H-pyrazol-3-yl)-amide]
0.19 µM | Cc1c(C(N)=O)sc2ncnc(Nc3ccc(C(F)(F)F)cc3O[C@H]3CCCNC3)c12 [Example 65, 5-Methyl-4-[2-((S)-piperidin-3-yloxy)-4-trifluoromethyl-phenylamino]-thieno[2,3-d]pyrimidine-6-carboxylic acid amide]
0.01 µM | Cc1c(C(N)=O)sc2ncnc(Nc3ccc(Cl)cc3O[C@H]3CCCNC3)c12 [Example 66, 4-[4-Chloro-2-((S)-piperidin-3-yloxy)-phenylamino]-5-methyl-thieno[2,3-d]pyrimidine-6-carboxylic acid amide]
0.046 µM | Cc1c(C(N)=O)sc2ncnc(Nc3ccc(C#N)cc3O[C@H]3CCCNC3)c12 [Example 67, 4-[4-Cyano-2-((S)-piperidin-3-yloxy)-phenylamino]-5-methyl-thieno[2,3-d]pyrimidine-6-carboxylic acid amide]
0.08 µM | Cc1ccc(Nc2ncnc3sc(C(N)=O)c(C)c23)c(O[C@H]2CCCNC2)c1 [Example 68, 4-[4-Methyl-2-((S)-piperidin-3-yloxy)-phenylamino]-5-methyl-thieno[2,3-d]pyrimidine-6-carboxylic acid amide]
0.019 µM | Cc1c(C(N)=O)sc2ncnc(Nc3cccnc3O[C@H]3CCCNC3)c12 [Example 69, 5-Methyl-4-[2-((S)-piperidin-3-yloxy)-pyridin-3-ylamino]thieno[2,3-d]pyrimidine-6-carboxylic acid amide]
0.089 µM | Cc1c(C(N)=O)sc2ncnc(Nc3ccc(F)cc3O[C@@H]3CCCNC3)c12 [Example 71, 4-[4-Fluoro-2-((R)-piperidin-3-yloxy)-phenylamino]-5-methyl-thieno[2,3-d]pyrimidine-6-carboxylic acid amide]
0.009 µM | Cc1c(C(N)=O)sc2ncnc(Nc3ccc(F)cc3O[C@@H]3CCCN(Cc4ncon4)C3)c12 [Example 72, 4-[4-Fluoro-2-((R)-1-[1,2,4]oxadiazol-3-ylmethyl-piperidin-3-yloxy)-phenylamino]-5-methyl-thieno[2,3-d]pyrimidine-6-carboxylic acid amide]
0.005 µM | Cc1c(C(N)=O)sc2ncnc(Nc3ccc(F)cc3O[C@@H]3CCCN(CC(F)(F)F)C3)c12 [Example 73]
0.003 µM | Cc1c(C(N)=O)sc2ncnc(Nc3ccc(F)cc3O[C@@H]3CCCN(CC(F)F)C3)c12 [Example 74, 4-{2-[(R)-1-(2,2-Difluoro-ethyl)-piperidin-3-yloxy]-4-fluoro-phenylamino}-5-methyl-thieno[2,3-d]pyrimidine-6-carboxylic acid amide]
0.022 µM | COCCN1CCC[C@@H](Oc2cc(F)ccc2Nc2ncnc3sc(C(N)=O)c(C)c23)C1 [Example 75]
0.043 µM | Cc1c(C(N)=O)sc2ncnc(Nc3ccc(F)cc3O[C@@H]3CCCN(C)C3)c12 [Example 76, 4-[4-Fluoro-2-((R)-1-methyl-piperidin-3-yloxy)-phenylamino]-5-methyl-thieno[2,3-d]pyrimidine-6-carboxylic acid amide]
0.028 µM | Cc1c(C(N)=O)sc2ncnc(Nc3ccc(F)cc3O[C@@H]3CCCN(Cc4nccs4)C3)c12 [Example 78]
0.012 µM | Cc1c(C(N)=O)sc2ncnc(Nc3ccc(F)cc3O[C@@H]3CCCN(CCC(F)(F)F)C3)c12 [Example 79]
0.02 µM | Cc1c(C(N)=O)sc2ncnc(Nc3ccc(F)cc3O[C@@H]3CCCN(CCO)C3)c12 [Example 80]
0.006 µM | Cc1c(C(N)=O)sc2ncnc(Nc3ccc(F)cc3O[C@@H]3CCCN(Cc4cccn4C)C3)c12 [Example 81]
0.008 µM | Cc1c(C(N)=O)sc2ncnc(Nc3ccc(F)cc3O[C@@H]3CCCN(CCC#N)C3)c12 [Example 82, 4-{2-[(R)-1-(2-Cyano-ethyl)-piperidin-3-yloxy]-4-fluoro-phenylamino}-5-methyl-thieno[2,3-d]pyrimidine-6-carboxylic acid amide]
0.12 µM | CC(=O)N1CCC[C@@H](Oc2cc(F)ccc2Nc2ncnc3sc(C(N)=O)c(C)c23)C1 [Example 83]
0.002 µM | Cc1c(C(N)=O)sc2ncnc(Nc3ccc(F)cc3O[C@@H]3CCCN(S(C)(=O)=O)C3)c12 [Example 84, 4-[4-Fluoro-2-((R)-1-methanesulfonyl-piperidin-3-yloxy)-phenylamino]-5-methyl-thieno[2,3-d]pyrimidine-6-carboxylic acid amide]
